biological target: recombinant CD73 (Homo sapiens (Human), UniProt P21589); assay: Assay 2: Inhibition of the CD73 enzyme in vitro (0.05 nM CD73, 1 hour 37° C., Malachite Green); type: biochemical; conditions: 0.05 nM CD73, 50 μM AMP, 1 hour at 37° C.
Method: For measurements of soluble CD73 enzyme activity, recombinant CD73 was obtained from R&D Systems, Cat. No. 5795-EN-010. […] Reactions were allowed to proceed for 1 hour at 37° C. before the addition of 100 μL Malachite Green (Cell Signaling Technology, Cat. No. 12776). After 5 minutes at room temperature, absorbance at 630 nm was determined on a microplate spectrophotometer. The concentration of inorganic phosphate was determined using a phosphate standard curve.

Chain of recombinant CD73 (P21589 27-547): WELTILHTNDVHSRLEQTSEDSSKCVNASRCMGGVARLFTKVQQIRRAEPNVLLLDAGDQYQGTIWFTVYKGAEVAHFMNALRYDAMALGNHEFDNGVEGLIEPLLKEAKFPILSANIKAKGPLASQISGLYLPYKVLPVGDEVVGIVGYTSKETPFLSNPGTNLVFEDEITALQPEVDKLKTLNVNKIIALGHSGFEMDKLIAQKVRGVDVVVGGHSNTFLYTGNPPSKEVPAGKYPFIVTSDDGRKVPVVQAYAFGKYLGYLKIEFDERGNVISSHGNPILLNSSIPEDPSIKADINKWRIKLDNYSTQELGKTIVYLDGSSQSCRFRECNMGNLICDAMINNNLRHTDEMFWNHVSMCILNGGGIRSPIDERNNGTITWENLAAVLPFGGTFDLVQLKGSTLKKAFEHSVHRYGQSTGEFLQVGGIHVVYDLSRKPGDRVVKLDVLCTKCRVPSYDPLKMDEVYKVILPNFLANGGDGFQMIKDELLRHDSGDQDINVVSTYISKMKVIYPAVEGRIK

| SMILES | IC50 |
| --- | --- |
| C#C[C@@]1(O)[C@@H](COC(Cc2ccccc2)(C(=O)O)C(=O)O)O[C@@H](n2cnc3c(N(CCO)CCO)nc(Cl)nc32)[C@@H]1O [Example 37, 2-benzyl-2-(((2R,3S,4R,5R)-5-(6-(bis(2-hydroxyethyl)amino)-2-chloro-9H-purin-9-yl)-3-ethynyl-3,4-dihydroxytetrahydrofuran-2-yl)methoxy)malonic acid] | 6 nM |
| C#C[C@@]1(O)[C@@H](COC(Cc2ccccc2)(C(=O)O)C(=O)O)O[C@@H](n2cnc3c(NCC4(O)CCC4)nc(Cl)nc32)[C@@H]1O [Example 40, 2-benzyl-2-(((2R,3S,4R,5R)-5-(2-chloro-6-(((1-hydroxycyclobutyl)-methyl)amino)-9H-purin-9-yl)-3-ethynyl-3,4-dihydroxytetrahydrofuran-2-yl)methoxy)malonic acid] | 3 nM |
| C#C[C@@]1(O)[C@@H](COC(Cc2ccc(-c3ccccc3C(=O)O)cc2)(C(=O)O)C(=O)O)O[C@@H](n2cnc3c(N)nc(Cl)nc32)[C@@H]1O [Example 54, 2-(((2R,3S,4R,5R)-5-(6-amino-2-chloro-9H-purin-9-yl)-3-ethynyl-3,4-dihydroxytetrahydrofuran-2-yl)methoxy)-2-((2′-carboxy-[1,1′-biphenyl]-4-yl)methyl)malonic acid] | 0.2 nM |
| C#C[C@@]1(O)[C@@H](COC(Cc2ccc(-c3cccn(CCO)c3=O)cc2)(C(=O)O)C(=O)O)O[C@@H](n2cnc3c(N)nc(Cl)nc32)[C@@H]1O [Example 21, 2-(((2R,3S,4R,5R)-5-(6-amino-2-chloro-9H-purin-9-yl)-3-ethynyl-3,4-dihydroxytetrahydrofuran-2-yl)methoxy)-2-(4-(1-(2-hydroxyethyl)-2-oxo-1,2-dihydropyridin-3-yl)benzyl)malonic acid] | 0.3 nM |
| C#C[C@@]1(O)[C@@H](COC(Cc2ccccc2)(C(=O)O)C(=O)O)O[C@@H](n2cnc3c(N4CC(CO)C4)nc(Cl)nc32)[C@@H]1O [Example 46, 2-benzyl-2-(((2R,3S,4R,5R)-5-(2-chloro-6-(3-(hydroxymethyl)azetidin-1-yl)-9H-purin-9-yl)-3-ethynyl-3,4-dihydroxytetrahydrofuran-2-yl)methoxy)malonic acid] | 1 nM |
| C#C[C@@]1(O)[C@@H](COC(Cc2ccc(N3CCCN(C)C3=O)cc2)(C(=O)O)C(=O)O)O[C@@H](n2cnc3c(N)nc(Cl)nc32)[C@@H]1O [Example 149, 2-(((2R,3S,4R,5R)-5-(6-amino-2-chloro-9H-purin-9-yl)-3-ethynyl-3,4-dihydroxytetrahydrofuran-2-yl)methoxy)-2-(4-(3-methyl-2-oxotetrahydropyrimidin-1 (2H)-yl)benzyl)malonic acid] | 0.11 nM |
| C#C[C@@]1(O)[C@@H](COC(Cc2ccc(N3CCCC3)cc2)(C(=O)O)C(=O)O)O[C@@H](n2cnc3c(N)nc(Cl)nc32)[C@@H]1O [Example 144, 2-(((2R,3S,4R,5R)-5-(6-amino-2-chloro-9H-purin-9-yl)-3-ethynyl-3,4-dihydroxytetrahydrofuran-2-yl)methoxy)-2-(4-(pyrrolidin-1-yl)benzyl)malonic acid] | 1 nM |
| C#C[C@@]1(O)[C@@H](COC(Cc2ccccc2)(C(=O)O)C(=O)OCC)O[C@@H](n2cnc3c(NCc4ccncc4)nc(Cl)nc32)[C@@H]1O (stereo partly drawn) [Example 109, 2-benzyl-2-(((2R,3S,4R,5R)-5-(2-chloro-6-((pyridin-4-ylmethyl)amino)-9H-purin-9-yl)-3-ethynyl-3,4-dihydroxytetrahydrofuran-2-yl)methoxy)-3-ethoxy-3-oxopropanoic acid] | 284 nM |
| C#C[C@@]1(O)[C@@H](COC(Cc2ccnc(Cl)c2)(C(=O)O)C(=O)O)O[C@@H](n2cnc3c(N)nc(Cl)nc32)[C@@H]1O [Compound 5, 2-(((2R,3S,4R,5R)-5-(6-amino-2-chloro-9H-purin-9-yl)-3-ethynyl-3,4-dihydroxytetrahydrofuran-2-yl)methoxy)-2-((2-chloropyridin-4-yl)methyl)malonic acid] | 4 nM |
| C#C[C@@]1(O)[C@@H](CO[C@](Cc2ccc(N3CCCNC3=O)cc2)(C(=O)O)C(=O)OCC)O[C@@H](n2cnc3c(N)nc(Cl)nc32)[C@@H]1O (single isomer, unassigned) [Example 164] | 261 nM |
| C#C[C@@]1(O)[C@@H](COC(CC=C)(C(=O)O)C(=O)O)O[C@@H](n2cnc3c(N)nc(Cl)nc32)[C@@H]1O [Example 15, 2-allyl-2-(((2R,3S,4R,5R)-5-(6-amino-2-chloro-9H-purin-9-yl)-3-ethynyl-3,4-dihydroxytetrahydrofuran-2-yl)methoxy)malonic acid] | 20 nM |
| C#C[C@@]1(O)[C@@H](COC(Cc2ccc(N3CCCNC3=O)cc2)(C(=O)O)C(=O)O)O[C@@H](n2ccc(=O)[nH]c2=O)[C@@H]1O [Example 134, 2-(((2R,3S,4R,5R)-5-(2,4-dioxo-3,4-dihydropyrimidin-1(2H)-yl)-3-ethynyl-3,4-dihydroxytetrahydrofuran-2-yl)methoxy)-2-(4-(2-oxotetrahydropyrimidin-1 (2H)-yl)benzyl)malonic acid] | 16 nM |
| C#C[C@@]1(O)[C@@H](COC(C(=O)O)C(=O)O)O[C@@H](n2cnc3c(NC)nc(Cl)nc32)[C@@H]1O [Example 117, 2-(((2R,3S,4R,5R)-5-(2-chloro-6-(methylamino)-9H-purin-9-yl)-3-ethynyl-3,4-dihydroxytetrahydrofuran-2-yl)methoxy)malonic acid] | 58 nM |
| C#C[C@@]1(O)[C@@H](COC(Cc2ccsc2)(C(=O)O)C(=O)O)O[C@@H](n2cnc3c(NC(C)C)nc(Cl)nc32)[C@@H]1O [Example 33, 2-(((2R,3S,4R,5R)-5-(2-chloro-6-(isopropylamino)-9H-purin-9-yl)-3-ethynyl-3,4-dihydroxytetrahydrofuran-2-yl)methoxy)-2-(thiophen-3-ylmethyl)malonic acid] | 2 nM |
| C#C[C@@]1(O)[C@@H](COC(Cc2ccccc2)(C(=O)O)C(=O)O)O[C@@H](n2cnc3c(-c4cccs4)nc(Cl)nc32)[C@@H]1O [Example 18, 2-benzyl-2-(((2R,3S,4R,5R)-5-(2-chloro-6-(thiophen-2-yl)-9H-purin-9-yl)-3-ethynyl-3,4-dihydroxytetrahydrofuran-2-yl)methoxy)malonic acid] | 0.3 nM |
| C#C[C@@]1(O)[C@@H](CO[C@](Cc2ccccc2)(C(=O)O)c2cscn2)O[C@@H](n2cnc3c(NC(C)C)nc(Cl)nc32)[C@@H]1O (single isomer, unassigned) [Example 170] | 8 nM |
| C#C[C@@]1(O)[C@@H](COC(Cc2ccccc2)(C(=O)O)C(=O)O)O[C@@H](n2cnc3c(NCC)nc(Cl)nc32)[C@@H]1O [Example 73, 2-benzyl-2-(((2R,3S,4R,5R)-5-(2-chloro-6-(ethylamino)-9H-purin-9-yl)-3-ethynyl-3,4-dihydroxytetrahydrofuran-2-yl)methoxy)malonic acid] | 1 nM |
| CC[C@@]1(O)[C@@H](COC(Cc2ccccc2)(C(=O)O)C(=O)O)O[C@@H](n2cnc3c(N)nc(Cl)nc32)[C@@H]1O [Example 56, 2-(((2R,3S,4R,5R)-5-(6-amino-2-chloro-9H-purin-9-yl)-3-ethyl-3,4-dihydroxytetrahydrofuran-2-yl)methoxy)-2-benzylmalonic acid] | > 200 nM |
| C#C[C@@]1(O)[C@@H](COC(Cc2ccccc2)(C(=O)O)C(=O)O)O[C@@H](n2cnc3c(N(C)C4CC(O)C4)nc(Cl)nc32)[C@@H]1O (stereo partly drawn) [Example 48, 2-benzyl-2-(((2R,3S,4R,5R)-5-(2-chloro-6-((3-hydroxycyclobutyl)-(methyl)amino)-9H-purin-9-yl)-3-ethynyl-3,4-dihydroxytetrahydrofuran-2-yl)methoxy)malonic acid] | 0.5 nM |
| C#C[C@@]1(O)[C@@H](COC(Cc2ccccc2)(C(=O)O)C(=O)O)O[C@@H](n2cnc3c(N[C@@H](C)CO)nc(Cl)nc32)[C@@H]1O [Example 95, 2-benzyl-2-(((2R,3S,4R,5R)-5-(2-chloro-6-(((S)-1-hydroxypropan-2-yl)amino)-9H-purin-9-yl)-3-ethynyl-3,4-dihydroxytetrahydrofuran-2-yl)methoxy)malonic acid] | 7 nM |
| C#C[C@@]1(O)[C@@H](COC(Cc2ccccc2)(C(=O)O)C(=O)O)O[C@@H](n2cnc3c(N(C)C)nc(Cl)nc32)[C@@H]1O [Example 89, 2-benzyl-2-(((2R,3S,4R,5R)-5-(2-chloro-6-(dimethylamino)-9H-purin-9-yl)-3-ethynyl-3,4-dihydroxytetrahydrofuran-2-yl)methoxy)malonic acid] | 1.1 nM |
| C#C[C@@]1(O)[C@@H](COC(Cc2ccccc2)(C(=O)O)C(=O)O)O[C@@H](n2cnc3c(N[C@H](C)CO)nc(Cl)nc32)[C@@H]1O [Example 98, 2-benzyl-2-(((2R,3S,4R,5R)-5-(2-chloro-6-(((R)-1-hydroxypropan-2-yl)amino)-9H-purin-9-yl)-3-ethynyl-3,4-dihydroxytetrahydrofuran-2-yl)methoxy)malonic acid] | 2 nM |
| C#C[C@@]1(O)[C@@H](COC(Cc2ccc(-c3ccc[nH]c3=O)cc2)(C(=O)O)C(=O)O)O[C@@H](n2cnc3c(NC)nc(Cl)nc32)[C@@H]1O [Example 147, 2-(((2R,3S,4R,5R)-5-(2-chloro-6-(methylamino)-9H-purin-9-yl)-3-ethynyl-3,4-dihydroxytetrahydrofuran-2-yl)methoxy)-2-(4-(2-oxo-1,2-dihydropyridin-3-yl)benzyl)malonic acid] | 0.58 nM |
| C#C[C@@]1(O)[C@@H](COC(Cc2ccc(N3CCCN(CCO)C3=O)cc2)(C(=O)O)C(=O)O)O[C@@H](n2cnc3c(NC(C)C)nc(Cl)nc32)[C@@H]1O [Example 139, 2-(((2R,3S,4R,5R)-5-(2-chloro-6-(isopropylamino)-9H-purin-9-yl)-3-ethynyl-3,4-dihydroxytetrahydrofuran-2-yl)methoxy)-2-(4-(3-(2-hydroxyethyl)-2-oxotetrahydropyrimidin-1 (2H)-yl)benzyl)malonic acid] | 0.13 nM |

— US11078228B2, “Ectonucleotidase inhibitors and methods of use thereof” (Calithera Biosciences, Inc., priority 2018, dated 2021)
